“Also recorded” adds a separate entry of the source.
How the values were obtained:
[1] = test system: epithelial sodium channel (ENaC); assay: Short-circuit current, basal ENaC activity in mCCD cells; format: cell-based, mouse; details: mCCD cell monolayer, Ussing chamber
From the text: The mouse cortical collecting duct (mCCD) cell line is a continuous, high resistance cell line that has the characteristics of the principal cells that line the kidney distal tubules. In this segment of the tubules, a transport protein, the epithelial sodium channel (ENaC), is responsible for the reabsorption of sodium from the kidney filtrate and the return of this ion to the bloodstream. As the concentration of sodium increases in the blood, the increased osmotic concentration will cause a compensatory movement of water from cells all over the body into the blood and an increase in blood volume and blood pressure. ENaC is an important transport protein and its function plays a major role in the regulation of whole body salt and water balance. Increases in the activity of ENaC can cause hypertension and many hypertension medications target the intracellular signaling pathways that culminate in the activation of ENaC. For example, ENaC is inhibited by the diuretic, amiloride.
The mCCD cell line was grown in tissue culture media consisting of Dulbecco's Minimal Essential media (DMEM):Hams F12 supplemented with 5% fetal bovine serum and penicillin (100 U/ml) and streptomycin ([…]). Cultured cells in both flasks and on Transwells had the media changed thrice weekly. […] In the current Example, the basal activity of ENaC in the cells is the parameter that is monitored.

[2] = test system: heterozygous Wpk rat model of hydrocephalus; assay: MRI of lateral ventricular volumes in heterozygous Wpk rat model; format: in vivo; details: heterozygous Wpk rats, 8 mg/kg BW i.p. daily for 8 days, versus vehicle, P=0.039 Mann-Whitney
Protocol: FIG. 4 depicts MRI quantification of the effects of SI113 on hydrocephalus in the heterozygous Wpk rat model. The bars represent the difference in volumes of the lateral ventricles measured at postnatal (P) day 7 and P15. The volumes were measured by MRI before treatment with vehicle or SI 113 (8 mg/kg BW; i.p. daily) and again after 8 days of treatment. The difference in the volume for each of the animals was calculated and the averages ±SEM are shown in the bar graph. The number of animals in each study is noted as n. Approximately equal numbers of male and female animals were used.
The Wpk rat model is unique in that the genetic defect causes a severe hydrocephalus in the homozygous affected animals (see FIG. 1) and a mild hydrocephalus in the heterozygous animals (see FIG. 4). The heterozygous animals live for at least year. […] In this model the hydrocephalus is not severe enough to change head dimensions so the effect of the SI113 on the hydrocephalus was measured using MRI. […] Volumes of interest on lateral ventricles were determined from threshold based image segmentation of native cerebrospinal fluid contrast, and images were quantified for lateral ventricular volumes using Analyze 12.0. The MRIs were conducted on each animal on day 7 and day 15 and the differences in lateral ventricular volumes were calculated (FIG. 4).

[3] = test system: Wpk rat model (TMEM67-/-) of hydrocephalus; assay: Head dimensions in homozygous Wpk rat model of hydrocephalus; format: in vivo; details: homozygous Wpk rats
Protocol: The effectiveness of SI 113 was tested in a genetic model of hydrocephalus, the Wpk rat model. In this model, the homozygous animals (TMEM67−/−) carry a single point mutation in TMEM67, one of a complex of proteins involved in the formation of the primary cilium. The homozygous affected animals have severe hydrocephalus and renal cystic disease. They typically survive for 18-21 days after birth, and the developing hydrocephalus can be monitored by measuring the head size in a manner analogous to measuring head sizes in human children.
In FIG. 1, the head sizes in both the horizontal and vertical dimensions are shown.

[4] = test system: PCP-R porcine choroid plexus cell line; assay: Short-circuit current, TRPV4 agonist-stimulated transepithelial ion transport in PCP-R cells; format: cell-based; details: PCP-R cells in Ussing chamber, pretreatment at t=-10 minutes, agonist at t=0
Protocol: PCP-R (porcine choroid plexus, high resistance) cell line was grown to confluence on permeable Transwell supports. The PCP-R cell line is grown in tissue culture media consisting of Dulbecco's Minimal Essential media (DMEM) supplemented with 10% fetal bovine serum and penicillin (100 U/ml) and streptomycin ([…]). Cultured cells in both flasks and on Transwells had the media changed thrice weekly. After attaining a high resistance phenotype (days 10-12 after seeding on the Transwells), the cultures were removed from the plastic supports and mounted in an Ussing chamber for electrophysiological measurements (short-circuit current (SCC)) of net transepithelial ion transport. A negative deflection is indicative of anion absorption (CSF to blood) and/or cation secretion (blood to CSF). GSK1016797 is an agonist of TRPV4, an osmo- and mechano-sensitive channel which, when stimulated, allows Ca^2+ to enter the cells. The increased intracellular Ca^2+ secondarily stimulates Ca^2+-sensitive channels. In the case of the PCP-R cells, this process stimulates Ca^2+-sensitive K^+ channels causing the secretion of K^+ and, secondarily, water into the cerebrospinal fluid. […] All cultures were stimulated with GSK1016797 at time t=0.

SMILES | short-circuit current (SCC), transepithelial sodium transport via ENaC [1] | hydrocephalus, difference in lateral ventricular volumes between P7 and P15 by MRI [2] | head dimensions of treated hydrocephalic animals compared with wild-type animals ([3]; after treatment post-natal day 7 to day 15) | head dimensions (horizontal and vertical) of hydrocephalic animals ([3]; treatment post-natal day 7 to day 15, versus vehicle, *p=0.009, # p=0.03, 1-tailed t-test) | response (short-circuit current) to TRPV4 agonist GSK1016797 [4]
OCCNc1nc(NCCc2ccccc2)c2cnn(/C=C/c3ccccc3)c2n1 [SI 113, 2-({1-(2-phenylethenyl)-4-[(2-phenylethy)amino]-1H-pyrazolo[3,4-d]pyrimidin-6-yl}amino)ethanol] | caused a decrease in the SCC | statistically significant difference; also recorded: effectively decreased the hydrocephalus | not statistically different than the wild-type animals | significantly decreased the head dimensions | completely blocked
N=C(N)NC(=O)c1nc(Cl)c(N)nc1N [amiloride, reference compound] | strongly inhibited | – | – | – | –

Source: patent publication US11701358B2, “Methods of inhibiting serum glucocorticoid induced kinase 1 (SGKI) as a treatment for salt and water balance diseases” (Indiana University Research and Technology Corporation, priority 2017, dated 2023)
